Common to all, as to type: biochemical
Test [1] concerns the target T1, 320 wild-type protein kinases (Homo sapiens, UniProt Q9H2K8).
T1 sequence (Q9H2K8 1-898): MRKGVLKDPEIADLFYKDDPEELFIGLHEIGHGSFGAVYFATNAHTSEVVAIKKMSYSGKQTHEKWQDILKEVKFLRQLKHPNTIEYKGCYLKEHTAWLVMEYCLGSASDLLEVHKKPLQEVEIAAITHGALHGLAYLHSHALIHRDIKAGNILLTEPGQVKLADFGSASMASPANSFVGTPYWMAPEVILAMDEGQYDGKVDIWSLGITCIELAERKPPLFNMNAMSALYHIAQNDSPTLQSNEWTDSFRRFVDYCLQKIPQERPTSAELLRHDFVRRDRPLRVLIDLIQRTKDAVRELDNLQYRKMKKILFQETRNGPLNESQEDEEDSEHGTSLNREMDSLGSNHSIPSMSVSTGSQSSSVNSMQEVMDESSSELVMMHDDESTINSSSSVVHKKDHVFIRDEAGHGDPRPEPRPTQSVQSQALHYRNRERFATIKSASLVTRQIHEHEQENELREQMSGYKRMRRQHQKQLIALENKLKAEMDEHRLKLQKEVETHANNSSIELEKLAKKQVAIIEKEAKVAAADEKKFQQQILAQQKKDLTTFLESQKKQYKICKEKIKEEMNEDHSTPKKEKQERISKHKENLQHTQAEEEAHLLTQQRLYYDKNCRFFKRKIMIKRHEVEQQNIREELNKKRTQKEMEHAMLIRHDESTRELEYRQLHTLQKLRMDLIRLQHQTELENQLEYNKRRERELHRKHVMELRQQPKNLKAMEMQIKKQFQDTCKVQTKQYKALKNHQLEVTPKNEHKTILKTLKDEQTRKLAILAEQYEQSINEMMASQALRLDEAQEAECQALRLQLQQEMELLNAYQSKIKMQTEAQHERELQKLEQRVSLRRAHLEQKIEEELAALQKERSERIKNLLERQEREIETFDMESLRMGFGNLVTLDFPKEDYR
The settings on record: kinase TAOK3, singlicate. An excerpt:
(§1) Table S4. Profiling of two compounds at two concentrations against 320 wild-type protein kinases; singlicate measurement; Residual activities (% of control).

Test [2] deals with 320 wild-type protein kinases (Homo sapiens, UniProt Q7KZI7). The conditions noted are these: singlicate.
320 wild-type protein kinases (Homo sapiens, UniProt Q7KZI7), sequence (Q7KZI7 whole entry): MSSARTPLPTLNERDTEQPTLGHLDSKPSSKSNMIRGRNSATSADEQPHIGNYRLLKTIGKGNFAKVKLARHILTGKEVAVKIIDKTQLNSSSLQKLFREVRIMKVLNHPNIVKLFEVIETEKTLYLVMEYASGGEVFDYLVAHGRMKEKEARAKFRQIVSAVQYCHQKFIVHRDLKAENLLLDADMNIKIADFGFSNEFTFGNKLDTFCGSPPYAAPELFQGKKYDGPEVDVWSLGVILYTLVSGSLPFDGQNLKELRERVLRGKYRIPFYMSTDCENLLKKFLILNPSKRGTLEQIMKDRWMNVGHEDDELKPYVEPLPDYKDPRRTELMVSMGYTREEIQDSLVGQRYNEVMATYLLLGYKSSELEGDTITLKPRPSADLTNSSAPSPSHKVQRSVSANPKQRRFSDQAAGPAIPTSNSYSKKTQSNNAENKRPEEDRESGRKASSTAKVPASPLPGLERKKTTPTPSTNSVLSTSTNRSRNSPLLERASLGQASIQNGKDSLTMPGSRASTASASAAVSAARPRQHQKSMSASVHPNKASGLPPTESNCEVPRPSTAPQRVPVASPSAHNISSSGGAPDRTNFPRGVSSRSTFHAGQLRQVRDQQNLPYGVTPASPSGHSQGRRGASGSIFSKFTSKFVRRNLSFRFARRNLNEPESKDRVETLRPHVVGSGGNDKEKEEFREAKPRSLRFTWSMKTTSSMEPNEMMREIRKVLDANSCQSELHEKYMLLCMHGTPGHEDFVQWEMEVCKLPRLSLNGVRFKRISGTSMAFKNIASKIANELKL
Source text: as §1

For test [3], the target named is T2, 320 wild-type protein kinases (Homo sapiens, UniProt Q12851).
T2 sequence (Q12851 1-820): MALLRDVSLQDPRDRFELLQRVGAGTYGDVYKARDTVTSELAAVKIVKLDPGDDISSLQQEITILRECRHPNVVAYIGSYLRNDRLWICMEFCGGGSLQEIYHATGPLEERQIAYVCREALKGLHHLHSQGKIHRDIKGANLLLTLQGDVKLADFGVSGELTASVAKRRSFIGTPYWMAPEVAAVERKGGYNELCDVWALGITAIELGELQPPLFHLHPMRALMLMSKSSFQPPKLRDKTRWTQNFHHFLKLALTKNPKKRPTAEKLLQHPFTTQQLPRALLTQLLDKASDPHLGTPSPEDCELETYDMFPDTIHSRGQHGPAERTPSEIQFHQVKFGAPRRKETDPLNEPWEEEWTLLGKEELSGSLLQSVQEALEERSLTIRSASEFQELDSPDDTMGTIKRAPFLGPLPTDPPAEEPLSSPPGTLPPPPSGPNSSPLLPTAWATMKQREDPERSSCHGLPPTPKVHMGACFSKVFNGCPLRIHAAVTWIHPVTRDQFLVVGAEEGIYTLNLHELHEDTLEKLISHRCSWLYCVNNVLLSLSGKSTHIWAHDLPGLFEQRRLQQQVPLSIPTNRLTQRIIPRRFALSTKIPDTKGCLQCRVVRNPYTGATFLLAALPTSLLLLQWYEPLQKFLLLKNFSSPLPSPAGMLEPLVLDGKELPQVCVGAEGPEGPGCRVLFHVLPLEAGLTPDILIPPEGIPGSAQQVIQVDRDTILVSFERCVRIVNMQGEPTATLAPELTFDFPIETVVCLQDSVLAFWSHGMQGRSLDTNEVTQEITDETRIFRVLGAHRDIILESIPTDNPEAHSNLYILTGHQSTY
The conditions noted are these: singlicate.
Source text: as §1

The target in test [4] is T3, 320 wild-type protein kinases (Homo sapiens, UniProt O00444).
T3 sequence (O00444 1-970): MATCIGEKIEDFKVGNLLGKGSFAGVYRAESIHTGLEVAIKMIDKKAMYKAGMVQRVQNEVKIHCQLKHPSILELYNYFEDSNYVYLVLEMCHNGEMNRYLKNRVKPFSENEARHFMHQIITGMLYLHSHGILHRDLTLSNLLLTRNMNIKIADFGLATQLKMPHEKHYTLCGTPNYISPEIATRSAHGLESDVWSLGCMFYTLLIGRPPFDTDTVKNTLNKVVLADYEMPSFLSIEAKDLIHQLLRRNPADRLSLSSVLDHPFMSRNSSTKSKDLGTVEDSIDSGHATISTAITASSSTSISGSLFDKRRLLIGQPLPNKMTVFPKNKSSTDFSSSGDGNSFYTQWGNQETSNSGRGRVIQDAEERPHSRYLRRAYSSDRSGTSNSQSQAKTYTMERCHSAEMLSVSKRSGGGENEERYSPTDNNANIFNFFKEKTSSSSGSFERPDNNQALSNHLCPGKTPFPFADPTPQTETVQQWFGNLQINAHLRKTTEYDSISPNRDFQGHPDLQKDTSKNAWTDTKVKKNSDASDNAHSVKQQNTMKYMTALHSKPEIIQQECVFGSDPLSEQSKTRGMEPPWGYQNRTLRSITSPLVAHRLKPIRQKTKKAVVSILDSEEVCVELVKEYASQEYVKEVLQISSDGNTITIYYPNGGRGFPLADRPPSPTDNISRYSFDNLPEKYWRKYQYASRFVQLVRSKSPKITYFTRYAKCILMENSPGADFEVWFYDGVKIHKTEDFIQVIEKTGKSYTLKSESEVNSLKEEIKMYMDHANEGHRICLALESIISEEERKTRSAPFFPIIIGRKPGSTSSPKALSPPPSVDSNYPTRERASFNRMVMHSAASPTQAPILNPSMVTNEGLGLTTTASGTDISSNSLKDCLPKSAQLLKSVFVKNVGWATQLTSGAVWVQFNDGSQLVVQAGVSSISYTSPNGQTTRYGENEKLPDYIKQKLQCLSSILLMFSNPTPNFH
The settings on record: kinase SAK, singlicate.
Source text: as §1

For test [5], the target named is 320 wild-type protein kinases (Homo sapiens, UniProt O60674). The settings on record: singlicate.
320 wild-type protein kinases (Homo sapiens, UniProt O60674), sequence (O60674 whole entry): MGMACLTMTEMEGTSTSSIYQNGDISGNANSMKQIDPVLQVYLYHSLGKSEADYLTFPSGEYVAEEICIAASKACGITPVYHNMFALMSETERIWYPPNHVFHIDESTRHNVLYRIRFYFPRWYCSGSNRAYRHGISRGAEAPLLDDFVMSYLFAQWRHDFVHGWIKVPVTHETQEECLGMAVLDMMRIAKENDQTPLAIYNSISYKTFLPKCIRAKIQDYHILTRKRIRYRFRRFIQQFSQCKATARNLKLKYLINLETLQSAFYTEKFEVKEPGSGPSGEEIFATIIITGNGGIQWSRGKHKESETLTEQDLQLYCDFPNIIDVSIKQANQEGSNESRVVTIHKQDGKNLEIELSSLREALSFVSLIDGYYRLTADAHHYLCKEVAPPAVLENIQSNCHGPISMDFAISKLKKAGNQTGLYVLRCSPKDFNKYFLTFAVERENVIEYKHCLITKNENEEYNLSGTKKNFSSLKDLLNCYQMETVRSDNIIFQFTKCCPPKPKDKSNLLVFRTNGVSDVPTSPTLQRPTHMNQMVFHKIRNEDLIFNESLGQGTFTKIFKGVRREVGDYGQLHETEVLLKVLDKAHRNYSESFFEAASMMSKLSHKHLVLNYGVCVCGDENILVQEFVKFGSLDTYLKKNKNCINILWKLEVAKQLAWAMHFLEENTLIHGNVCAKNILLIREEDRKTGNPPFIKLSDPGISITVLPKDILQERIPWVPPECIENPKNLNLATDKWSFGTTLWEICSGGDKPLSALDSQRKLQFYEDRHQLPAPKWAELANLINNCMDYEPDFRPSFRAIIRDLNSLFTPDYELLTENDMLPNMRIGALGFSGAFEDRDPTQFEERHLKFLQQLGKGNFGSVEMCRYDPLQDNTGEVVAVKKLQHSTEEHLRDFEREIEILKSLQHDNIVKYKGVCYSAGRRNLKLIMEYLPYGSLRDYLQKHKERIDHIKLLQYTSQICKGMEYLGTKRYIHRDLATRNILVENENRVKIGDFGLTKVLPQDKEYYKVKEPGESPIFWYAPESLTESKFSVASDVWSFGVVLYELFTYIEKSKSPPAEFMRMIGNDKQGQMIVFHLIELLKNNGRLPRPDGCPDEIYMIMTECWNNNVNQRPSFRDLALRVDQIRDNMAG
Source text: as §1

Like-named read-outs stand apart in the source and are kept apart here.

As for `C#Cc1cc(Nc2ncnc3cc(OC)c(OC)cc23)ccc1Cl` [Compound 45], the “Residual activity, TAOK3” value in test [1] (assay conc. 1.0E-06 M) is reported as 106 % of control; in test [1] (assay conc. 1.0E-07 M), 92 % of control. For the same compound, the Residual activity in test [2] (MARK2, 1.0E-06 M) is listed as 90 % of control; in test [2] (MARK2, 1.0E-07 M) it was 103 % of control; in test [3] (MAP4K2, 1.0E-06 M) it was 113 % of control; in test [3] (MAP4K2, 1.0E-07 M) it was 105 % of control; in test [5] (JAK2, 1.0E-06 M), 92 % of control; in test [5] (JAK2, 1.0E-07 M), 102 % of control. Further, the “Residual activity, SAK” value is 82 % of control in test [4] (assay conc. 1.0E-06 M) and 99 % of control in test [4] (assay conc. 1.0E-07 M).
As to `C#Cc1cc(Nc2ncnc3cc(I)ccc23)ccc1Cl` [Compound 41], the “Residual activity, TAOK3” value in test [1] (assay conc. 1.0E-06 M) is given as 93 % of control; in test [1] (assay conc. 1.0E-07 M) it was 87 % of control. Moreover, the Residual activity in test [2] (MARK2, 1.0E-06 M) is on record as 114 % of control; in test [2] (MARK2, 1.0E-07 M), 104 % of control; in test [3] (MAP4K2, 1.0E-06 M), 94 % of control; in test [3] (MAP4K2, 1.0E-07 M), 99 % of control; in test [5] (JAK2, 1.0E-06 M), 98 % of control; in test [5] (JAK2, 1.0E-07 M) it was 105 % of control. The results for the “Residual activity, SAK” value in test [4] (assay conc. 1.0E-06 M) and in test [4] (assay conc. 1.0E-07 M) were 77 % of control and 95 % of control, respectively.

The values above are taken from PMC9329436, “Optimization of the 4-anilinoquin(az)oline scaffold as epidermal growth factor receptor (EGFR) inhibitors for chordoma utilizing a toxicology profiling assay platform” (Scientific Reports, 2022).
